Measurements from patent US20230364051A1, “FORMULATIONS AND METHODS FOR IMPROVING AVIAN HEALTH” (CORNELL UNIVERSITY, priority 2022, published 2023).
Marks after values point to notes of the source that are not given here.

Key:
[1] = test system: BBM Fe-related proteins and intestinal bacterial populations; conditions: in vivo; cited from earlier work
L. plantarum = assay: Duodenal bacterial populations by PCR of 16S rDNA: L. plantarum; format: in vivo, Gallus gallus; conditions: 5 wt. % inulin vs H2O injected control, p < 0.05; duodenum, day of hatch
Experimental: (§1) Cornish-cross fertile broiler eggs (Gallus gallus, n = 39) were obtained from a commercial hatchery (Moyer’s chicks, Quakertown, PA, USA). The eggs were incubated under optimal conditions at the Cornell University Animal Science Poultry Farm Incubator [18]. All animal protocols were approved by Cornell University Institutional Animal Care and Use committee (IACUC #2020-0077). At day 17 of embryonic incubation, eggs containing viable embryos were weighed and divided into 5 groups, with all treatment groups assigned eggs of similar weight frequency distribution. Each group was then injected with the specific solution (1 mL per egg) with a 21-gauge needle into the amniotic fluid. Treatments in powder form were separately diluted in DI H2O. Two treatment groups (1.25, 2.5 wt. %), two controls (H2O and non-injected), and a positive control (5 wt. % inulin) were administered. After injection, the injection holes were sealed with cellophane tape and the eggs were placed in hatching baskets such that each treatment was equally represented at each incubator location. […]
(§2) Primers for Lactobacillus, Bifidobacterium, L. Plantarum, Clostridium, and E. coli were designed according to previously published data. […] PCR products were separated by electrophoresis on 2 wt. % agarose gel, stained with ethidium bromide, and quantified using the Quantity One 1-D analysis software (BioRad, Hercules, CA, USA).

[2] = Body weight and cecum weight at hatch after intraamniotic administration; format: in vivo, Gallus gallus
Experimental: (§3) Cornish-cross fertile broiler eggs (Gallus gallus, n = 39) were obtained from a commercial hatchery (Moyer’s chicks, Quakertown, PA, USA). The eggs were incubated under optimal conditions at the Cornell University Animal Science Poultry Farm Incubator [18]. All animal protocols were approved by Cornell University Institutional Animal Care and Use committee (IACUC #2020-0077). At day 17 of embryonic incubation, eggs containing viable embryos were weighed and divided into 5 groups, with all treatment groups assigned eggs of similar weight frequency distribution. Each group was then injected with the specific solution (1 mL per egg) with a 21-gauge needle into the amniotic fluid. Treatments in powder form were separately diluted in DI H2O. Two treatment groups (1.25, 2.5 wt. %), two controls (H2O and non-injected), and a positive control (5 wt. % inulin) were administered. After injection, the injection holes were sealed with cellophane tape and the eggs were placed in hatching baskets such that each treatment was equally represented at each incubator location. Immediately upon hatch (day 21), blood was taken for hemoglobin determination and all chicks were then euthanized by CO2 exposure. The small intestine, pectoral muscle, cecum, and liver were collected, immediately frozen in liquid nitrogen, and then stored in a -80° C. freezer until analysis.

Clostridium spp. = assay: Duodenal bacterial populations by PCR of 16S rDNA: Clostridium; format: in vivo, Gallus gallus; conditions: 5 wt. % inulin vs no injection and H2O injection controls, p < 0.05; duodenum, day of hatch
Experimental: as §1, §2

[3] = Blood hemoglobin (QuantiChrom Hemoglobin Assay) at hatch after intraamniotic administration; format: in vivo, Gallus gallus; conditions: 5 wt. % inulin intraamniotic, day 17; blood at hatch
Experimental: as §3, with “All animal protocols were approved by Cornell University Institutional Animal Care and Use committee (IACUC #2020-0077). At day 17 of embryonic incubation, eggs containing viable embryos were weighed and divided into 5 groups, with all treatment groups assigned eggs of similar weight frequency distribution.” left out, “Two treatment groups (1.25, 2.5 wt. %), two controls (H2O and non-injected), and a positive control (5 wt. % inulin) were administered.” left out
Blood was collected using micro-hematocrit heparinized capillary tubes (Fisher Scientific, Waltham, MA, USA). Blood Hb concentrations were determined spectrophotometrically using the QuantiChromTM Hemoglobin Assay (DIHB-250, BioAssay Systems, Hayward, CA, USA) following the kit manufacturer’s instructions.

[4] = Pectoral muscle glycogen analysis after intraamniotic administration; format: in vivo, Gallus gallus; conditions: 5 wt. % inulin intraamniotic, day 17; pectoral muscle at hatch
Experimental: as §3
Glycogen analysis was obtained from pectoralis muscle as previously described. Briefly, the frozen pectoral muscle samples were homogenized in 8 wt. % perchloric acid. Samples were then centrifuged at 12,000 × g for 15 minutes. The supernatant was removed, and 1.0 mL of petroleum ether was added to each tube. After mixing, the petroleum ether fraction was removed and samples from the bottom layer were transferred to a 96-well plate containing 300 µL of color reagent. All samples were read at a wavelength of 450 nm in an ELISA reader and the amount of glycogen was calculated according to a standard curve. The amount of glycogen present in pectoral sample was determined by multiplying the weight of the tissue by the amount of glycogen per 1 g of wet tissue.

duodenum = assay: Duodenal tissue morphology examination (villi, crypts, goblet cells, Paneth cells); format: in vivo, Gallus gallus; conditions: 5 wt. % inulin intraamniotic, day 17; duodenum at hatch
Experimental: as §3, with “All animal protocols were approved by Cornell University Institutional Animal Care and Use committee (IACUC #2020-0077). At day 17 of embryonic incubation, eggs containing viable embryos were weighed and divided into 5 groups, with all treatment groups assigned eggs of similar weight frequency distribution.” left out, “Two treatment groups (1.25, 2.5 wt. %), two controls (H2O and non-injected), and a positive control (5 wt. % inulin) were administered.” left out
Intestinal morphology examination was performed as was previously described. Duodenum samples were fixed in fresh 4 wt. % (v/v) buffered formaldehyde, dehydrated, cleared, and embedded in paraffin. Serial sections were cut at 5 µm and placed on glass slides. Intestinal sections were deparaffinized in xylene, rehydrated in a graded alcohol series, stained with Alcian Blue/Periodic acid-Schiff, and examined by light microscopy. The following variables were measured in the intestine: villus height, villus width, crypt depth, Paneth cell number per crypt, Paneth cell width, goblet cell number, goblet cell diameter, types of goblet cells in the villi epithelium, and types of goblet cells within the crypts. Measurements in each segment were performed with a light microscope using CellSens Standard software (Olympus, Waltham, MA, USA).

[5] = 5 wt. % inulin intraamniotic, day 17, at hatch

O=c1c(-c2ccc(O)cc2)coc2cc(O)ccc12 [daidzein]
Expression of BBM Fe-related proteins and intestinal bacterial populations [1]: affected

inulin [reference compound]
Relative abundance of L. plantarum (L. plantarum): significantly increased
Average Body Weight [2, 5]: 46.04 ± 1.18 ^ab g
Average Cecum Weight [2, 5]: 0.43 ± 0.05 ^b g
Cecum weight of no injection and H2O groups compared to treated group ([2]; 5 wt. % inulin, p < 0.05): significantly greater values
Relative abundance of Clostridium spp. (Clostridium spp.): significantly increased
Average Hb [3]: 9.56 ± 0.92 ^c g/dL
Average Glycogen [4]: 0.002 ± 0.001 ^b mg/g
# Crypt Paneth Cells (duodenum): 2.56 ± 0.09 ^c
Crypt Depth (duodenum): 35.00 ± 0.43 ^b µm
Crypt Goblet Cell Diameter (duodenum): 2.51 ± 0.02 ^c µm
Crypt Goblet Cell Number Acidic (duodenum): 7.97 ± 0.16 ^b Unit
Crypt Goblet Cell Number Mixture (duodenum): 1.19 ± 0.08 ^c Unit
Crypt Goblet Cell Number Neutral (duodenum): 0.00 ± 0.00 ^a Unit
Crypt Goblet Cell Number Total (duodenum): 9.15 ± 0.16 ^b Unit
Crypt Paneth cell Diameter (duodenum): 1.68 ± 0.03 ^b µm
Villi Goblet Cell Diameter (duodenum): 2.74 ± 0.03 ^e µm
Villi Goblet Cell Number Acidic (duodenum): 16.39 ± 0.54 ^c Unit
Villi Goblet Cell Number Mixture (duodenum): 6.53 ± 0.30 ^a Unit
Villi Goblet Cell Number Neutral (duodenum): 0.10 ± 0.02 ^b Unit
Villi Goblet Cell Number Total (duodenum): 23.02 ± 0.60 ^b Unit
Villus Height (duodenum): 246.64 ± 5.14 ^a µm
Villus Surface Area (duodenum): 206.92 ± 6.37 ^a mm2
Villus Width (duodenum): 50.98 ± 1.03 ^a µm
